IC50 and viability, T/C data for two compounds are collected here from PubChem BioAssay AID1963975 (Molecular Pharmacology Branch, DTP, NCI, 2024).

The test system of the assay is 624824-186-R-J2-PDC multicell spheroids, viability. The experiment in a line: Anticancer human tumor 624824-186-R-J2-PDC patient-derived colon adenocarcinoma cell line growth inhibition [PI3K]. To be noted: for viability, T/C: stronger effect = lower value. From the text: Combinatorial screen of targeted agents with the PI3K inhibitors inavolisib, alpelisib, duvelisib, and copanlisib in multi-cell type tumor spheroids
A high-throughput screen of multi-cell type tumor spheroids was designed to identify active combinations of targeted small molecules and PI3K pathway inhibitors. Complex spheroids include a stromal component modeled by human endothelial cells (HUVEC) and fibroblasts modeled by human mesenchymal stem cells (MSCs). The concentration ranges selected for each drug and investigational agent were based upon clinically achievable concentrations if the clinical Cmax of the agent was known.
Compounds. The drugs and investigational agents: inavolisib (NSC800729), alpelisib (NSC765974), duvelisib (NSC772469), copanlisib (NSC816437), ipatasertib (NSC767898), afuresertib (NSC778305), talazoparib (NSC767125), sapanisertib (NSC764658), selumetinib (NSC741078), tovorafenib (DAY101, NSC766906), vemurafenib (NSC761431), ravoxertinib (NSC781343), sotorasib (NSC818433), MRTX1133 (NSC 836407), abemaciclib (NSC 768073), palbociclib (NSC758247), venetoclax (NSC 766270), SY5609 (NSC837396), enzalutamide (NSC755605), and darolutamide (NSC825331), were obtained from the National Cancer Institute (NCI) Developmental Therapeutics Program Chemical Repository. The FDA-approved anticancer drug set is available from the NCI Developmental Therapeutics Program. […] The stock solutions were prepared in dimethyl sulfoxide (DMSO, Sigma-Aldrich, St. Louis, MO, cat. D2650) at 800-fold the tested concentration and stored at -70 degrees C prior to their use. All drugs and investigational agents were tested over a range starting from a high concentration at or near the clinical Cmax and decreasing in half-log increments. If the clinical Cmax for an agent had not been determined, the highest concentration tested was 10 microM.
Cell Culture. All cells were maintained in an incubator at 37 degrees C and 5% CO2 with 95% humidity. The PDC lines were cultured according to standard operating procedures established by the NCI PDMR (https://pdmr.cancer.gov/sops/default.htm). All PDCs were thawed and cultured in Matrigel-coated flasks prepared with a working solution of 1X Ham's F-12 nutrient mix, without supplementation (Invitrogen, Waltham, MA, cat. 11765054), 100 U/mL penicillin-streptomycin (Invitrogen, cat. 15140122), and 2.5% Matrigel (Corning Inc., Corning, NY, cat. 354248) for the first three passages. The 354836-022-R-J1-PDC, 475296-252-R-J1-PDC, and 997726-040-R-J2-PDC lines were cultured in 6A media, which includes advanced DMEM/F-12 (Thermo Fisher Scientific, cat. 12634028), 10 mM HEPES (Thermo Fisher Scientific, cat. 15630080), 1X GlutaMAX supplement (Thermo Fisher Scientific, cat. 35050061), 0.1 mg/mL primocin (InvivoGen, San Diego, CA, cat. ant-pm-2), 10% defined fetal bovine serum, heat inactivated (HyClone Laboratories Inc., Logan, UT, cat. SH30070.03HI), 50% L-WRN conditioned media (ATCC, cat. CRL-3276), 1.25 mM N-Acetyl-L-cysteine (Sigma-Aldrich, cat. A9165), 10 mM nicotinamide (Sigma-Aldrich, cat. N0636), 1X B-27 supplement (Thermo Fisher Scientific, cat. 17504044), 1X N-2 supplement (Thermo Fisher Scientific, cat. 17502048), and 10 microM Y-27632 dihydrochloride (Tocris Bioscience, Bristol, United Kingdom, cat. 1254). The 624824-186-R-J2-PDC line was cultured in 6C/Colon 1B media, which includes all 6A media components plus 50 ng/mL human EGF recombinant protein (Thermo Fisher Scientific, cat. PHG0311). […]

The structures appear in SMILES notation. Some results are limits rather than exact numbers.
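Note: spheroids exposed to agents for 7 days before viability read.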
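Throughout, for viability, T/C: 100% = DMSO vehicle treated spheroids.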

Consider `Cn1cnc2c(F)c(Nc3ccc(Br)cc3Cl)c(C(=O)NOCCO)cc21` + CC(Nc1ncnc2nc[nH]c12)c1cc2cccc(Cl)c2c(=O)n1-c1ccccc1, for which the IC50 was over 3 µM (curve of first compound, second compound 0.0316 µM); over 3 µM (curve of first compound, second compound 0.1 µM); over 3 µM (curve of first compound, second compound 0.316 µM); over 3 µM (curve of first compound, second compound 1 µM); over 3 µM (curve of first compound, second compound 3.16 µM); over 3 µM (curve of first compound, second compound 10 µM). Further, the viability, T/C runs as follows: (second compound 0.0316 µM, first compound 0.00949 µM) 73.3%; (second compound 0.0316 µM, first compound 0.03 µM) 89.5%; (second compound 0.0316 µM, first compound 0.0949 µM) 69.2%; (second compound 0.0316 µM, first compound 0.3 µM) 63.5%; (second compound 0.0316 µM, first compound 0.949 µM) 68%; (second compound 0.0316 µM, first compound 3 µM) 60.6%. Moreover, the viability, T/C (second compound 0.1 µM, first compound 0.00949 µM) was 79.8%; the viability, T/C (second compound 0.1 µM, first compound 0.03 µM) is 62.7%; the viability, T/C (second compound 0.1 µM, first compound 0.0949 µM) was 70.8%; the viability, T/C (second compound 0.1 µM, first compound 0.3 µM) was 55.8%; the viability, T/C (second compound 0.1 µM, first compound 0.949 µM) is 64.2%; the viability, T/C (second compound 0.1 µM, first compound 3 µM) was 62.1%. Also, the viability, T/C was 86.9% (second compound 0.316 µM, first compound 0.00949 µM); 64.5% (second compound 0.316 µM, first compound 0.03 µM); 58.6% (second compound 0.316 µM, first compound 0.0949 µM); 59.5% (second compound 0.316 µM, first compound 0.3 µM); 60.5% (second compound 0.316 µM, first compound 0.949 µM); 61.2% (second compound 0.316 µM, first compound 3 µM). In addition, the viability, T/C runs as follows: (second compound 1 µM, first compound 0.00949 µM) 75.2%; (second compound 1 µM, first compound 0.03 µM) 75.3%; (second compound 1 µM, first compound 0.0949 µM) 65.1%; (second compound 1 µM, first compound 0.3 µM) 67%; (second compound 1 µM, first compound 0.949 µM) 58.5%; (second compound 1 µM, first compound 3 µM) 53.5%. Further, the viability, T/C is, setting by setting: (second compound 3.16 µM, first compound 0.00949 µM) 78.2%; (second compound 3.16 µM, first compound 0.03 µM) 74.7%; (second compound 3.16 µM, first compound 0.0949 µM) 60.6%; (second compound 3.16 µM, first compound 0.3 µM) 59.6%; (second compound 3.16 µM, first compound 0.949 µM) 56.2%; (second compound 3.16 µM, first compound 3 µM) 50.6%. In addition, the viability, T/C reads like this: (second compound 10 µM, first compound 0.00949 µM) 72.7%; (second compound 10 µM, first compound 0.03 µM) 71.8%; (second compound 10 µM, first compound 0.0949 µM) 67.4%; (second compound 10 µM, first compound 0.3 µM) 60.7%; (second compound 10 µM, first compound 0.949 µM) 57.5%; (second compound 10 µM, first compound 3 µM) 51.2%.
Consider `CC(C)n1nc(-c2ccc3oc(N)nc3c2)c2c(N)ncnc21`, for which the viability, T/C is, setting by setting: (compound 0.00316 µM) 79.1% [middle of 4 runs]; (compound 0.01 µM) 82.6% [middle of 4 runs]; (compound 0.0316 µM) 76.4% [middle of 4 runs]; (compound 0.1 µM) 79.5% [middle of 4 runs]. The IC50 (curve of compound) is over 0.1 µM.
